These results are taken from patent US9415107B2, “Compositions and methods for the treatment of addiction and other neuropsychiatric disorders” (priority 2005, dated 2016).

Data set [1] concerns adult male Wistar rats. Kind of data set: Intravenous cocaine self-administration under a multiple, alternating schedule of food reinforcement and cocaine self-administration. As to conditions: for cocaine self-administration (number of infusions): ip pretreatment; for cocaine self-administration: pretreatment with the drug alone, general statement. It is filed as in vivo, rat.
Procedure: Adult male Wistar rats were trained under a multiple, alternating schedule of cocaine and food self-administration. This schedule consisted of alternating periods of cocaine access and food reinforcement. In some instances, as described further below, three doses of cocaine (0.125, 0.25, or 0.50 mg/kg/infusion) were tested. Rats were also periodically trained with saline substitution (cocaine extinction) and food extinction during the same session.
More specifically, adult male Wistar rats were implanted with chronic jugular catheters. Following recovery from surgery, the rats were trained to respond under a multiple, alternating schedule of food reinforcement and cocaine self-administration. Food-maintained responding was used to control for the non-specific motor effects of the various treatments. During the food component of the schedule, the stimulus light located above the food response lever was illuminated to indicate the availability of food reinforcement. […] A 25-second timeout followed the delivery of each food pellet. During this timeout, the stimulus light was darkened and responses on the food lever were counted but had no scheduled consequences. Responding on the other (cocaine) lever during the food component also had no scheduled consequences. […] Following 15 minutes of access to food, all stimulus lights in the chamber were darkened for a 1-minute timeout. Following the timeout, the stimulus light above the cocaine response lever was illuminated to indicate the availability of cocaine (0.125, 0.25, or 0.5 mg/kg/infusion). […] A 20-second timeout period followed each infusion. […] After 15 minutes of access to cocaine and a 1-minute timeout, the rats were again allowed 15 minutes access to the food component of the schedule. Access to food and cocaine alternated in this manner every 15 minutes during the two hour behavioral sessions so that each rat was exposed to food and cocaine for four 15-minute periods each. Each behavioral session began with 15 minutes access to either food or cocaine, and this alternated daily. Stable baselines of responding were established when the total number of cocaine and food presentations, as well as the number of presentations during each of the four exposures each session, varied less than 10% for three consecutive sessions. At least three different doses of cocaine (e.g., 0.125, 0.25, and 0.5 mg/kg/infusion) were tested. Rats were first trained to self-administer 0.25 mg/kg/infusion, our standard dose of cocaine. When responding stabilized, the dose was changed to 0.125 or 0.5 mg/kg/infusion as appropriate.
Once stable baselines of responding were obtained, dose-response curves for the various compounds were individually generated for each rat. Rats were treated with each dose at least twice with a minimum of two days of baseline cocaine self-administration interspersed between each test. Each group of rats was tested with only two of the test compounds to minimize potential carryover effects. […] This rationale guided the selection of the doses of each of the compounds in the combination studies. Each experimental group consisted of between 8 and 10 rats.

For data set [2], the system named is adult male Wistar rats. Nature of the data set: Cue-induced reinstatement of extinguished cocaine seeking (model of relapse). It is filed as in vivo, rat. To be noted: for reinstatement of extinguished cocaine seeking: pretreatment with the drug alone, general statement. An excerpt:
In our model, rats were exposed to alternating 15-minute periods of access to cocaine self-administration and food reinforcement. Food was used to control for potential nonspecific, ataxis effects of the drugs and combinations. […] The other preclinical model we used is the cue-induced reinstatement of extinguished cocaine seeking model of relapse. In this model, rats are trained to self-administer cocaine and the ability of conditioned cues in the environment to reinstate extinguished responding is assessed and taken as a measure of relapse.
The experiments described herein were designed to investigate whether or not drug combinations identified as effective in reducing cocaine self-administration would also block the ability of conditioned cues to reinstate extinguished cocaine-seeking behavior. Adult male Wistar rats were implanted with chronic jugular catheters and trained to self-administer cocaine (0.25 mg/kg/infusion) by pressing one of the response levers in the experimental chamber (i.e., the “active” or “cocaine” lever) under a fixed-ratio four (FR4) schedule of reinforcement during daily 2-hour sessions conducted 5 days per week. At the start of each session, both levers were extended into the chamber and the stimulus light above the active lever was illuminated to indicate the availability of cocaine. […] A 20-second timeout period followed each infusion. The stimulus light above the active lever and the house light and tone compound stimulus were extinguished during the timeout period, and the light above the active lever was illuminated once the timeout ended. When responding on the active lever varied less than 20% for two consecutive days, the response requirement was increased to FR2. When similar stability was observed under the FR2 schedule or reinforcement, the response requirement was increased to the final ratio of four. The criteria for stable responding under the FR4 schedule of reinforcement was a minimum of 10 days of exposure to this schedule that concluded with at least three consecutive days when responding varied by less than 10%. […] Once stable cocaine self-administration was observed, rats were exposed to extinction; the rats were placed into the behavioral chambers, but responding on the “cocaine” (active) lever produced no programmed consequences. Extinction training continued until responding decreased to less than 20% of baseline self-administration. Then reinstatement testing commended. The rats were placed into the experimental chambers, both response levers were extended into the chamber, and the stimulus light above the “active” lever was illuminated as during self-administration training. […] Responding on the “active” lever during reinstatement testing was taken as an index of cocaine-seeking behavior. Each experimental group consisted of 8 to 10 rats.

A short description of data set [3]: Pharmacokinetic interaction between cocaine, metyrapone and oxazepam (plasma concentrations by GCMS). To be noted: presence of iv cocaine. On the procedure:
Adult male Wistar rats (90 to 120 days old) were implanted with chronic, indwelling jugular catheters and were allowed to recover from surgery. […] Thirty minutes following the drug combination or vehicle injection, the rats received intravenous injections of cocaine (0.25 mg/kg/infusion) every 2 minutes for 1 hour. After the final injection of cocaine, blood was collected from the catheter for the analysis of cocaine and its metabolites ecgonine methyl ester and benzoylecgonine. […] All drug concentrations were determined using GCMS procedures.

In another data set the test system is male Wistar rats. Nature of the data set: Forced Swim Test (FST), animal model of depression.
For the next data set, the system named is plasma corticosterone. Nature of the data set: Plasma corticosterone after metyrapone pretreatment. To be noted: pretreatment with metyrapone.
Setting [4] is: low, ineffective dose of the drug alone.

“Also recorded” adds a separate entry of the source.

As to `CCCCN(CC)c1nc(C)nc2c1c(C)cn2-c1c(C)cc(C)cc1C` [CP-154,526], the “cocaine self-administration (number of infusions)” value in the data set with adult male Wistar rats [1] (high dose of the drug alone) is on record as “reduced cocaine self-administration”; with adult male Wistar rats [1] (setting [4]) it was “did not significantly affect cocaine self-administration”. In addition, the cocaine self-administration result in the data set with adult male Wistar rats [1] is “decrease”. Also, the “reinstatement of extinguished cocaine seeking” value with adult male Wistar rats [2] is on record as “decrease”.
In the case of `COC(=O)[C@H]1[C@@H](OC(=O)c2ccccc2)C[C@@H]2CC[C@H]1N2C` [cocaine], in data set [3], the “effect on plasma concentrations of metyrapone or oxazepam” value is “did not affect”.
Turning to `Cc1nnc2n1-c1ccc(Cl)cc1C(c1ccccc1)=NC2` [alprazolam], the entries for the “cocaine self-administration (number of infusions)” value with adult male Wistar rats [1] (high dose of the drug alone) and in the data set on adult male Wistar rats [1] (setting [4]) were “reduced cocaine self-administration” and “did not significantly affect cocaine self-administration”, respectively. Further, the cocaine self-administration result in the data set on adult male Wistar rats [1] is on record as “decrease”. Also, in the data set on adult male Wistar rats [2], the “reinstatement of extinguished cocaine seeking” value is given as “decrease”.
As to `CC(C)(C(=O)c1cccnc1)c1cccnc1` [metyrapone], the “cocaine self-administration (number of infusions)” value is listed as “reduced cocaine self-administration” in the data set with adult male Wistar rats [1] (high dose of the drug alone) and “did not significantly affect cocaine self-administration; also recorded: no longer affected cocaine self-administration” with adult male Wistar rats [1] (setting [4]). In the data set on adult male Wistar rats [1], the cocaine self-administration result was “decrease; also recorded: significant dose-related decreases”. In addition, the “cocaine seeking (responding on the active lever during reinstatement)” value in the data set on adult male Wistar rats [2] (chronic metyrapone 50 mg/kg, ip, once per day for 14 days) is “reduced cocaine seeking to levels seen when only saline was delivered”. For the same compound, the “reinstatement of extinguished cocaine seeking” value with adult male Wistar rats [2] is “decrease”. Also, the “immobility time in the FST” value in the data set on male Wistar rats (chronic administration, Met50 group (metyrapone 50 mg/kg alone)) is reported as “showed a lessening of immobility time”. Further, the “mean immobility time relative to vehicle (tolerance)” value with male Wistar rats (chronically treated groups that received only Ox or Met) is given as “equal to or exceeded the vehicle”. Further, the plasma corticosterone entry in the data set on plasma corticosterone is reported as “significant dose-related decreases”.
On to `CC(=O)N1CCN(c2ccc(OCC3COC(Cn4ccnc4)(c4ccc(Cl)cc4Cl)O3)cc2)CC1` (centres unmarked) [ketoconazole], for which the “minimally effective dose that reduced cocaine self-administration by at least 50% without affecting food-maintained responding” value in the data set on adult male Wistar rats [1] (drug alone) came to 25 mg/kg. The “cocaine self-administration (number of infusions)” value with adult male Wistar rats [1] (setting [4]) was “no effect; also recorded: did not significantly affect cocaine self-administration”. Besides, in the data set with adult male Wistar rats [1], the cocaine self-administration result was “decrease”. In addition, the “reinstatement of extinguished cocaine seeking” value with adult male Wistar rats [2] is listed as “decrease”.
With `NCc1cc(=O)[nH]o1` [muscimol], the “cocaine self-administration (number of infusions)” value with adult male Wistar rats [1] (high dose of the drug alone) was “reduced cocaine self-administration”; in the data set on adult male Wistar rats [1] (setting [4]), “did not significantly affect cocaine self-administration”.
